{"source": "patent US7169891B2", "about": "“Human pellino polypeptides” (Immunex Corporation, priority 2000, dated 2007)", "molecules": {"B1": {"name": "wild-type-FLAG: unaltered murine Pellino-1 (SEQ ID NO:2) fused to the FLAG epitope (protein, listed as Mus musculus)", "chain": "MFSPDQENHPSKAPVKYGELIVLGYNGSLPNGDRGRRKSRFALFKRPKANGVKPSTVHIACTPQAAKAISNKDQHSISYTLSRAQTVVVEYTHDSNTDMFQIGRSTESPIDFVVTDTVPGSQSNSDTQSVQSTISRFACRIICERSPPFTARIYAAGFDSSKNIFLGEKAAKWKTSDGQMDGLTTNGVLVMHPRNGFTEDSKPGIWREISVCGNVFSLRETRSAQQRGKMVEIETNQLQDGSLIDLCGATLLWRTAEGLSHTPTVKHLEALRQEINAARPQCPVGFNTLAFPSMKRKDVVDEKQPWVYLNCGHVHGYHNWGNKEERDGKDRECPMCRSVGPYVPLWLGCEAGFYVDAGPPTHAFSPCGHVCSEKTTAYWSQIPLPHGTHTFHAACPFCAHQLAGEQGYIRLIFQGPLD", "modifications": "FLAG tag"}, "B2": {"name": "wild-type Pellino-1: wild-type Pellino-1 polypeptide expressed in COS cells; murine sequence SEQ ID NO:2 (protein, listed as Mus musculus)", "chain": "B1 chain"}}, "key": {"Pellino-1": {"test_system": "Pellino-1", "experiment": "Effect of cell stimulation on Pellino-1 localization and cleavage in transfected COS-7 cells", "assay_type": "cell-based, monkey", "details": "for Effect of growth factor incubation on Pellino-1 (cleavage and redistribution): Pellino-1-transfected cells, concentration not given", "description": "This example describes the effect of stimulation of COS-7 cells transfected with an expression vector encoding FLAG-Pellino-1 with IL-1 or other molecules. Transfected cells are prepared substantially as described above. […] As Drosophila Pellino was identified by its ability to associate with Pelle, experiments in which Pellino is coexpressed with IRAK have been performed to determine if mammalian Pellino interacted with IRAK, the presumptive mammalian counterpart of Pelle.\nTo determine if the observed redistribution and proteolytic processing of Pellino-1 specifically required IRAK, Pellino-1-transfected cells were stimulated with agents that activate NF-kB by IRAK-independent pathways such as phorbol myristate acetate (PMA, 100 ng/ml), which is known to promote many of the same intracellular signals as IL-1, and TNF-alpha (20 ng/ml). TNF-alpha activates NF-kB through a mechanism involving the adaptor protein TRADD, the kinase RIP, and TRAF2, while PMA stimulates the activity of protein kinase C which is known to cross-talk with the NF-kB pathway. […] In both cases, 2 to 3 hours of exposure to the stimulus was required before significant Pellino cleavage was seen. The total amount of detectable Pellino-1 polypeptide (the sum of soluble and insoluble fractions) was increased in the presence of PMA or TNF-alpha, which presumably reflects a change in the net rates of Pellino-1 synthesis and/or degradation. […] EGF has been reported in some cells to activate NF-kB through the induction of IkB-alpha degradation."}, "[1]": {"test_system": "Jun N-terminal kinase, p38 kinase, and ERK signaling", "experiment": "Jun N-terminal kinase, p38 kinase and ERK signaling mediated by IL-1", "assay_type": "cell-based"}, "[2]": {"test_system": "NF-kB-dependent reporter gene", "experiment": "NF-kB-dependent reporter gene (luciferase) assay in transfected COS cells", "assay_type": "cell-based, monkey", "text": "(§1) The murine Pellino-1 coding sequence DNA was fused, in frame at the 3′ end, to DNA encoding the FLAG epitope, followed by an in-frame stop codon. This construct was cloned into the mammalian expression vector pDC304 (identical to pDC302, described in U.S. Pat. No. 5,599,905, issued Feb. 4, 1997, except that the early splice region, consisting of splice donor and acceptor sites of the SV40 viral element, has been removed); and transfected into an IL-1-responsive line of COS-7 cells by the DEAE-dextran method.\nIn order to assay the effect of the Pellino-1-FLAG polypeptide and other forms of Pellino polypeptides on reporter gene activity, a method essentially as described in Born et al., 1998, J. Biol. Cheni. 273: 29445–29450 (which is incorporated by reference herein) can be used. As one example of this method, Cos7 cells were transiently transfected by the DEAE-dextran method as described (Cosman et al., 1984, Nature 312: 768–771, which is incorporated by reference herein), using 150 ng of the Pellino polypeptide expression construct and 700 ng of the reporter plasmid per 45,000 cells. Two days post-transfection, cells were stimulated with 10 ng/ml IL-1 or 40 ng/ml IL-18 (PeproTech, Inc.) for 4 hours. Cells were lysed and luciferase activity assessed using Reporter Lysis Buffer and Luciferase Assay Reagent (Promega Corp.). IL-8 promoter-reporter and NFkB-dependent reporter constructs may be used as reporter plasmids. Alternatively, the effect of Pellino polypeptide expression may be assayed in COS-1 cells. In an alternative preferred method, COS7 cells were grown in 12-well dishes as described above. The cells were transiently transfected with Pellino test plasmid, 50 ng of reporter plasmid DNA, and empty vector, as required, to a total of 1 micrograms of total DNA per well. After 24 hours, stimulating agents were added in a small amount (less than 0.5% final volume) of medium or dimethyl sulfoxide, and the cells were re-incubated for 5 hours. Cells were lysed in luciferase Reporter Lysis Buffer (Promega, Madison Wis., 0.25 ml per well) and luciferase activity was measured in a EG & G/Berthold luminometer after addition of Luciferase Assay Reagent (Promega) according to the supplier's instructions. All results were normalized to total protein content of the lysates as measured using the micro-BCA assay (Pierce, Rockford, Ill)."}, "[3]": {"test_system": "IL-8 promoter-reporter gene", "experiment": "IL-8 promoter-reporter gene assay in transfected COS cells", "assay_type": "cell-based, monkey", "details": "COS-1 cells; presence and absence of TNF-alpha; compared to vector-only control", "text": "as §1\nIn order to assay the effect of the Pellino-1-FLAG polypeptide and other forms of Pellino polypeptides on reporter gene activity, a method essentially as described in Born et al., 1998, J. Biol. Cheni. 273: 29445–29450 (which is incorporated by reference herein) can be used. […] Cells were lysed and luciferase activity assessed using Reporter Lysis Buffer and Luciferase Assay Reagent (Promega Corp.). […] Cells were lysed in luciferase Reporter Lysis Buffer (Promega, Madison Wis., 0.25 ml per well) and luciferase activity was measured in a EG & G/Berthold luminometer after addition of Luciferase Assay Reagent (Promega) according to the supplier's instructions. All results were normalized to total protein content of the lysates as measured using the micro-BCA assay (Pierce, Rockford, Ill)."}}}
{"molecule": "TNF-alpha", "values": [{"measurement": "Time after induction at which cleavage and relocation of Pellino-1 began", "setting": "Pellino-1; TNF-alpha 20 ng/ml, time-course experiments", "result": "about three"}]}
{"molecule": "basic fibroblast growth factor: growth factor", "values": [{"measurement": "Effect of growth factor incubation on Pellino-1 (cleavage and redistribution)", "setting": "Pellino-1", "result": "little or no effect"}]}
{"molecule": "epidermal growth factor", "values": [{"measurement": "Effect of growth factor incubation on Pellino-1 (cleavage and redistribution)", "setting": "Pellino-1", "result": "very weakly active"}]}
{"molecule": "platelet-derived growth factor", "values": [{"measurement": "Effect of growth factor incubation on Pellino-1 (cleavage and redistribution)", "setting": "Pellino-1", "result": "little or no effect"}]}
{"molecule": "transforming growth factor-beta", "values": [{"measurement": "Effect of growth factor incubation on Pellino-1 (cleavage and redistribution)", "setting": "Pellino-1", "result": "little or no effect"}]}
{"molecule": "B1", "values": [{"measurement": "Jun N-terminal kinase, p38 kinase, and ERK signaling mediated by IL-1", "setting": "[1]", "result": "moderately augmented"}, {"measurement": "Effect on Reporter Gene", "setting": "[2]; NF-kB-dependent reporter gene activity, form of murine Pellino-1 expressed in COS cells", "result": "Stimulatory"}, {"measurement": "IL-1-induced NFkB-dependent reporter gene activity", "setting": "[2]; preliminary experiment, COS-7 cells", "result": "partially inhibit"}]}
{"molecule": "B2", "values": [{"measurement": "IL-8 promoter-reporter gene activity", "setting": "[3]", "result": "stimulates"}, {"measurement": "NFkB-dependent reporter gene activity", "setting": "[2]; COS cells transfected with high concentrations of expressing construct", "result": "inhibitory effect"}]}
